Test results taken from ChEMBL document CHEMBL1201862, “PubChem BioAssay data set” (2004).
Values belong to the molecule of their own block, whether it stands above or below them. Active and inactive are the calls of the source.

What was measured:
[1] = biological target: Cytochrome P450 3A4 (Homo sapiens, UniProt P08684); settings: Potency;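 further: confirmatory qHTS run detecting inhibitors and substrates of CYP3A4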
[2] = biological target: Large T antigen (Simian virus 40, UniProt P03070); format: functional, Betapolyomavirus macacae;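 further: Confirmatory-stage PubChem screen for compounds that inhibit SV40 T antigen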
[3] = C. albicans growth with fluconazole, confirmation, fluorescence, retest (AID 2467); format: functional, cell-based
[4] = biological target: T1, RNA-binding protein pos-1 (Caenorhabditis elegans, UniProt G5EF15); test: inhibitors of POS-1/mex-3 RNA binding, dose response, biochemical, fluorescence polarization (AID 1964);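 further: purified POS-1 fused to maltose binding protein made in E. coli; potency of compounds blocking POS-1 binding to fluorescent RNA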
T1 sequence (G5EF15 whole entry): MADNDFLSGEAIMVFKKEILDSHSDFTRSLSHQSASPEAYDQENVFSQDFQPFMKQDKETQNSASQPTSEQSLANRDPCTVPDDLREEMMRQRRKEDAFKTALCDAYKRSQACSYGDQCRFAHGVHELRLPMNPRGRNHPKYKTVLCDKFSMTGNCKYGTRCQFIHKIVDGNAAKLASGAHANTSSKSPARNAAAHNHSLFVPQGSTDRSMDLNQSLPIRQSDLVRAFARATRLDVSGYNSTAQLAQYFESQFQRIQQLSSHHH

[5] = NIH-3T3 fibroblast cytotoxicity, dose response, cytotoxicity control, cell-based, fluorescence, Alamar Blue, secondary assay (AID 2327); format: functional;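 further: NIH-3T3 mouse fibroblasts cultured with fluconazole at 8 µg/mL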
[6] = biological target: T2, Zinc finger protein mex-5 (Caenorhabditis elegans, UniProt Q9XUB2); test: MEX-5/TCR-2 RNA interaction inhibitors, dose response, biochemical, C. elegans, fluorescence polarization (AID 1960)
T2 sequence (Q9XUB2 whole entry): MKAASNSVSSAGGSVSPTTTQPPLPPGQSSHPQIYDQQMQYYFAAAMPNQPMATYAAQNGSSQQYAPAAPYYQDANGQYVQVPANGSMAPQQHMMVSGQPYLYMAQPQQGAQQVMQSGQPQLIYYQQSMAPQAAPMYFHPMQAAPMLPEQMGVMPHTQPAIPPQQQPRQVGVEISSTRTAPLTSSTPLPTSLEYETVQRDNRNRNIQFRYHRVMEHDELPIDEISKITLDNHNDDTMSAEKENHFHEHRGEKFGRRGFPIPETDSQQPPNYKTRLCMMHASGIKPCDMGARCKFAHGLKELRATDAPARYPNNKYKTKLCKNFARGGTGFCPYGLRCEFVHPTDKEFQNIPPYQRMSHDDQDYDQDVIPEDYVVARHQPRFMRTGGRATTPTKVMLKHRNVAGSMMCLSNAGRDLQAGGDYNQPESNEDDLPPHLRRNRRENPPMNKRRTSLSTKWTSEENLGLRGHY

[7] = inhibitors of clade B AD8 Env fusion, dose response, cell-based, cherry-pick (AID 652062); format: functional;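 further: luciferase signal from cell-cell fusion driven by HIV-1 clade B AD8 Env; potency is for inhibitors of fusion seen as a drop in luminescence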
[8] = ZM109 Env clade C HIV-1 fusion inhibitors, dose response, HeLa effector, CEM target cells, luciferase, cherry-pick (AID 652058); format: functional, cell-based
[9] = inhibitors of HIV Env-driven cell fusion, dose response, cherry-pick (AID 652057); format: functional, cell-based
[10] = off-target signal loss in HeLa-CEM21 co-culture – HeLa F-luc CTL cells, cherry-picked, counter-screen for HIV-1 Env fusion inhibitor project, dose response (AID 652040); format: functional, cell-based;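 further: potency for signal decrease marking cytotoxic or nonspecific inhibition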
[11] = biological target: T3, Rac GTPase-activating protein 1 (Homo sapiens, UniProt Q9H0H5); test: MgcRacGAP GTPase-activating activity inhibitors, confirmation, biochemical, ADP Hunter fluorescence, primary and confirmatory (AID 624330); format: functional
T3 sequence (Q9H0H5 whole entry): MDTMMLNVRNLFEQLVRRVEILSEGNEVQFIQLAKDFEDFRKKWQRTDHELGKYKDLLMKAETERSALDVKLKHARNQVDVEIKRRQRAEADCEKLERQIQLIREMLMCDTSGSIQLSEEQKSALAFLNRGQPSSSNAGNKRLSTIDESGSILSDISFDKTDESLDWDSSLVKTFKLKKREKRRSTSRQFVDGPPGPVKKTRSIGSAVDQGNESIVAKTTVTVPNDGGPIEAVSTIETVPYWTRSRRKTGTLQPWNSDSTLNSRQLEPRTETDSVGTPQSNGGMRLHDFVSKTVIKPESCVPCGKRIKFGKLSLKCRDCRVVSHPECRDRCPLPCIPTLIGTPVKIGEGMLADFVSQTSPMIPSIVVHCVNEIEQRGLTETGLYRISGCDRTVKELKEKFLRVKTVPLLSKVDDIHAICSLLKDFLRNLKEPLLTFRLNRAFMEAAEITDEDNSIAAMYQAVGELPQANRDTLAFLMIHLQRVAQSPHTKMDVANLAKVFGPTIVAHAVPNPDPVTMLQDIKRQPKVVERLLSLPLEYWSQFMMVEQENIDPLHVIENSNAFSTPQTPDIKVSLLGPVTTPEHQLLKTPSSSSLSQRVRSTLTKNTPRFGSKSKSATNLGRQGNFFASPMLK

[12] = biological target: T4, Heat shock factor protein 1 (Mus musculus, UniProt P38532); test: inhibition of MG132-induced HSE-luciferase signal, confirmation, cell-based, NIH3T3, luminescence, dose retest (AID 2382); format: functional;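 further: NIH3T3 fibroblasts with HSF1-driven luciferase reporter stressed by proteasome inhibitor MG132; luminescence from HSF1-driven luciferase expression after 8 hours of MG132 stress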
T4 sequence (P38532 whole entry): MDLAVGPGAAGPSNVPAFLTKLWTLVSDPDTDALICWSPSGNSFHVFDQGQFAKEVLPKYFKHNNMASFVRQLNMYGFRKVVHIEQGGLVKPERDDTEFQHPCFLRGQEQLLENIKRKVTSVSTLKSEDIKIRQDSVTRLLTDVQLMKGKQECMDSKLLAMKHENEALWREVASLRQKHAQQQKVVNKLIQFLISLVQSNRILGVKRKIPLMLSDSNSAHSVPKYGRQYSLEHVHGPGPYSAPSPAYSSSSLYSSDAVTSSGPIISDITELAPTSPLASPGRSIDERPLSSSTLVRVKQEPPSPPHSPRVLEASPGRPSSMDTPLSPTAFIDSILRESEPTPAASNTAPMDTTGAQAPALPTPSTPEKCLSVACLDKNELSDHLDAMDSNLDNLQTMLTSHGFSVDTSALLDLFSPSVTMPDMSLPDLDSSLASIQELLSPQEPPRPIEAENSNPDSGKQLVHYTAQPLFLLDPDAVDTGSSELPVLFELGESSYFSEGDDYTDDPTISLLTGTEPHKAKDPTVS

[13] = inhibitors of intracellular T. cruzi replication, confirmation, NIH3T3 host cells, beta-gal luminescence (AID 2044); format: functional, cell-based;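 further: intracellular parasites grown in NIH/3T3 mouse fibroblasts as host cells; luminescent beta-galactosidase reporter signal from transgenic T. cruzi replicating inside host cells; inhibitors lower the luminescence signal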
[14] = cytotoxicity toward NIH3T3 fibroblasts, dose response, counter-screen, cell-based, ATP luminescence, mouse fibroblasts (AID 2010); format: functional;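 further: cells exposed to compound for about 90 hours before reading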
[15] = intracellular Trypanosoma cruzi inhibitors in host cells – cell-based, plate reader, cherry-pick samples, set 3, dose response (AID 651818); format: functional;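 further: compounds incubated with infected cells for about four days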
[16] = biological target: T5, Microphthalmia-associated transcription factor (Homo sapiens, UniProt O75030); test: TRPM1 promoter luciferase signal decrease, dose response, MITF inhibitor project, cell-based, SK-MEL-5, cherry-picked, set 3 (AID 493073); format: functional
T5 sequence (O75030 whole entry): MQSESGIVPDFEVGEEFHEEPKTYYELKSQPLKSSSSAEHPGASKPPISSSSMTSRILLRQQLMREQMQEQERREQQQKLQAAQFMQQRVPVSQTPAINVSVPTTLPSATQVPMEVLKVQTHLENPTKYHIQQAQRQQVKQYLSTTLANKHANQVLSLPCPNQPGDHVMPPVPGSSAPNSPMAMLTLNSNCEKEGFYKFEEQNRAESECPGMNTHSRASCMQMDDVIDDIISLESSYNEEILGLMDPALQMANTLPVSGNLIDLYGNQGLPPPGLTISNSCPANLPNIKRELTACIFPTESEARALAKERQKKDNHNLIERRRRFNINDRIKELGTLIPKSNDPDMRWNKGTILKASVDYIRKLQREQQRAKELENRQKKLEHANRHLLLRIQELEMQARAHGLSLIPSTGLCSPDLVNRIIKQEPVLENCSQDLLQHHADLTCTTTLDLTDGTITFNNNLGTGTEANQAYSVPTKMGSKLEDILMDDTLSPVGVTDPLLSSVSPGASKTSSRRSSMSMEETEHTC

Large T antigen, sequence (P03070 whole entry): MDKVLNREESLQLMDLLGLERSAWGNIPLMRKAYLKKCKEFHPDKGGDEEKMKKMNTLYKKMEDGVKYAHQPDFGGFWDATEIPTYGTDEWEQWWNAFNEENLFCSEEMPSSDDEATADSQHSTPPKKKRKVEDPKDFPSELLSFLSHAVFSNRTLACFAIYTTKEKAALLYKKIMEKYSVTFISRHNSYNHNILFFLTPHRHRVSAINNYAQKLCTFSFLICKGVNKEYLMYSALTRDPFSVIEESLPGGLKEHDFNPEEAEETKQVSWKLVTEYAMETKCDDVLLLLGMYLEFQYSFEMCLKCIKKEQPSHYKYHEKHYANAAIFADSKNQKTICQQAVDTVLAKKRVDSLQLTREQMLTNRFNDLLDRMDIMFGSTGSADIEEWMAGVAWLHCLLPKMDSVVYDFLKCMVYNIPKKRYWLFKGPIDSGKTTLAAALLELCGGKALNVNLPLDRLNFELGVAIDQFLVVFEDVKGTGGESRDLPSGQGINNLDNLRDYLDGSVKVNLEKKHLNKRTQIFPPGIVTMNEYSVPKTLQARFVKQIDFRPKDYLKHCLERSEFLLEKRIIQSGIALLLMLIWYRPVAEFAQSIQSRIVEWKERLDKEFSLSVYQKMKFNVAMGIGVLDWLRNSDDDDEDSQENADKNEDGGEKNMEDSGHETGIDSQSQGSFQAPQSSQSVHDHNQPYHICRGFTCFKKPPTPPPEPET
Cytochrome P450 3A4, sequence (P08684 whole entry): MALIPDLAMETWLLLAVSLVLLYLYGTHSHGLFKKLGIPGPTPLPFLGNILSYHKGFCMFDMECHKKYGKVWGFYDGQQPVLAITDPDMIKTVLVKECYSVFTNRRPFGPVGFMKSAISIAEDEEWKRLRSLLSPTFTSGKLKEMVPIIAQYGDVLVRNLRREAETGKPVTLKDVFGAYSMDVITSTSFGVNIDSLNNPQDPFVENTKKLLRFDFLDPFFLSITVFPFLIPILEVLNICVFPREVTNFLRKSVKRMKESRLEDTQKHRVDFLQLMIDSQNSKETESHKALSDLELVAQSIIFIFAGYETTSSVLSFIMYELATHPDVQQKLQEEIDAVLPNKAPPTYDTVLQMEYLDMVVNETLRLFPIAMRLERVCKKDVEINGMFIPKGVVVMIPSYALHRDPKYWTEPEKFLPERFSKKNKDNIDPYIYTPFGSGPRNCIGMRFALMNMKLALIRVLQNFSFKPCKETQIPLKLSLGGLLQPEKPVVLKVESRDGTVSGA

AC50 [1]: 25.1 µM (inconclusive)
SMILES: CCCn1c(C)nc2c(NC(C)CCCN(CC)CC)nc(C)nc21 (stereo unspecified)

SMILES: COc1cc(/C=C2\C(=O)NN(c3ccccc3)C2=O)cc([N+](=O)[O-])c1O
IC50 [2]: > 100 µM (active)
EC50 [3]: > 38 µM (not active)
EC50 [4]: > 300 µM (not active)
EC50 [5]: 21.2 µM (inconclusive)
EC50 [6]: 37.5 µM (active)

SMILES: CN1CC(CO)=C[C@H]2c3cccc4[nH]cc(c34)C[C@H]21
AC50 [1]: 39.8 µM (inconclusive)

AC50 [1]: 10 µM (inconclusive)
SMILES: CCC1=C(OC(=O)N(CC)CC)N2C(=O)O/C(=N\CCOC)[C@]2(C)[C@H]2C1=CC[C@H]1C(=O)N(C)C(=O)[C@H]12

IC50 [2]: 11.7 µM (active)
SMILES: COC(=O)/C=C/C(=O)Nc1ccc(O)c(Cl)c1

IC50 [2]: 20 µM (active)
SMILES: COc1cc(/C=C/C(=O)OCC(=O)Nc2ccc(S(N)(=O)=O)cc2)ccc1O

IC50 [2]: 10.7 µM (active)
SMILES: Oc1ccc(Nc2nc(Cl)nc(NCc3ccco3)n2)cc1

SMILES: CC(C)CNC(=O)c1ccccc1NC(=O)c1ccccc1N(C)S(=O)(=O)c1ccccc1
AC50 [7]: 0.261 µM (active)
AC50 [8]: 0.937 µM (active)
AC50 [9]: 0.961 µM (active)
AC50 [10]: 1.62 µM (active)

IC50 [11]: 64.7 µM (active)
EC50 [12]: > 195 µM (not active)
SMILES: CCOc1ccc(NCc2cccn2-c2nnc(N3CCC(C(=O)NCCCN4CCCCC4)CC3)s2)cc1

SMILES: CN(Cc1ccc(Cl)cc1Cl)C(=O)c1cccc(S(=O)(=O)N2CCN(c3ccccc3)CC2)c1
EC50 [13]: 1.64 µM (active)
AC50 [7]: 43 µM (active)
AC50 [8]: 36 µM (active)
EC50 [14]: > 60 µM (not active)
AC50 [9]: 23.9 µM (active)
AC50 [10]: > 70 µM (inactive)

AC50 [1]: 3.16 µM (inconclusive)
SMILES: C=CCOC(=O)C(C(=O)CC)C(NC(=O)OC)c1ccc(F)cc1 (stereo unspecified)

AC50 [1]: 31.6 µM (inconclusive)
SMILES: COc1ccc(-c2coc3cc(OC(C)=O)cc(OC(C)=O)c3c2=O)cc1

SMILES: CC(=O)c1c(O)c(C)c(O)c2c1OC1=CC(=O)C(C(C)=O)C(=O)[C@@]12C (stereo partly specified)
AC50 [1]: 12.6 µM (inconclusive)

EC50 [4]: > 300 µM (not active)
AC50 [1]: 25.1 µM (inconclusive)
EC50 [6]: > 300 µM (not active)
SMILES: COC(=O)c1ccc(C23CC4(C2)[C@H](CN(Cc2ccc(C(F)(F)F)cc2)[C@@H]4c2ccccc2)C3c2ccccc2)cc1 (stereo partly specified)

EC50 [12]: > 195 µM (not active)
SMILES: CCCc1nc(-c2ccccc2O)n(-c2ccccc2)n1

EC50 [12]: > 195 µM (not active)
SMILES: Cn1cc(CN2CCc3ccccc3C2)c2ccccc21

EC50 [12]: > 195 µM (not active)
SMILES: O=C(CCc1ccccc1)Nc1cccc([N+](=O)[O-])c1

EC50 [12]: > 195 µM (not active)
SMILES: CCCCCn1c(SCC(=O)CC(=O)OCC)nc2cc(C(=O)N3CCC(C(N)=O)CC3)ccc2c1=O

SMILES: Cc1n[nH]c2ncc(C(=O)c3ccccc3O)cc12
AC50 [7]: 4.64 µM (active)
AC50 [8]: 0.606 µM (active)
AC50 [9]: 6.5 µM (active)
AC50 [10]: 2.78 µM (active)

EC50 [12]: > 195 µM (not active)
SMILES: Cc1cc(OCC(=O)NCCc2ccc(S(N)(=O)=O)cc2)c2c(C)cc(=O)oc2c1

SMILES: c1cnc2ccc(C(c3nnnn3C3CCCCC3)N3CCCCC3)cc2c1 (stereo unspecified)
AC50 [7]: 10.1 µM (active)
AC50 [8]: 14.9 µM (active)
AC50 [9]: 4.05 µM (active)
AC50 [10]: 6.97 µM (active)

SMILES: C[C@H]1CN([C@@H](C)CO)C(=O)Cc2cc(NS(=O)(=O)c3ccccc3)ccc2O[C@H]1CN(C)Cc1ccc(C(=O)Nc2ccccc2N)cc1
AC50 [15]: 3.55 µM (active)

SMILES: C[C@H]1CN([C@@H](C)CO)C(=O)Cc2cc(N(C)C)ccc2O[C@H]1CN(C)Cc1ccc(Oc2ccccc2)cc1
AC50 [15]: 1.57 µM (active)

SMILES: COc1ccc(S(=O)(=O)Nc2ccc3c(c2)C(=O)N([C@@H](C)CO)C[C@H](C)[C@H](CN(C)Cc2ccc(C(F)(F)F)cc2)O3)cc1
AC50 [15]: 4.07 µM (active)

SMILES: Cc1ccc(S(=O)(=O)N(C)C[C@@H]2Oc3ncc(Br)cc3C(=O)N([C@@H](C)CO)C[C@@H]2C)cc1
AC50 [7]: 9.72 µM (active)
AC50 [8]: 3.56 µM (active)
AC50 [9]: 4.36 µM (active)

IC50 [2]: 24.6 µM (active)
SMILES: Cc1cc(O)nc(N/N=C/c2c[nH]c3ccccc23)n1

IC50 [2]: 19.5 µM (active)
IC50 [11]: 77 µM (active)
SMILES: O=C(COc1cccc2cccnc12)N/N=C/c1ccc(O)cc1

IC50 [2]: 10.1 µM (active)
SMILES: COc1cc(/C=N/N2C(=O)C3C4C=CC(CC4)C3C2=O)ccc1O (stereo unspecified)

AC50 [16]: 5.22 µM (active)
SMILES: C=C1C(=O)O[C@@]23[C@H]1CC[C@@H](C)[C@@H]2CC[C@@]1(C)O[C@@H]31 [ARTEANNUIN B]

AC50 [1]: 39.8 µM (inconclusive)
SMILES: COc1ccc2c(c1)OCC(Cc1ccc(OC)c(OC(C)=O)c1)C2=O (stereo unspecified) [DEOXYSAPPANONE B 7,3'-DIMETHYL ETHER ACETATE]

AC50 [1]: 39.8 µM (inconclusive)
SMILES: Cc1cc(O)c(C=O)c2c1C(=O)Oc1c(COC(=O)/C=C/C(=O)O)c(O)c(C(=O)O)c(C)c1O2 [FUMARPROTOCETRARIC ACID]

SMILES: COc1cc2ccc(=O)oc2c2ccoc12 [SPHONDIN]
AC50 [1]: 3.98 µM (inconclusive)
